# Laboratory results reported in patent publication US20210038559A1, “CANNABINOIDS AND DERIVATIVES FOR PROMOTING IMMUNOGENICITY OF TUMOR AND INFECTED CELLS” (priority 2018, published 2021).
# Read-outs that look alike come from different tables or passages of the source.
# Test system: MHC-I expression by COLO 205 cells
# Test: cells
# Type: cell-based, human
# Settings: for fold induction at 35 µM: Homo sapiens, COLO 205, 48 h, read-out: Induction Fold
# Procedure: A panel of synthetic cannabinoids (Cayman Chemical, #9002891) was tested for MHC class I-inducing capability in COLO 205 cells as described above. COLO 205 cells were treated with the compounds at a concentration of 35 μM and evaluated for cell surface MHC class I expression after 48 hours. Cells were harvested, stained with MHC-I mAb W6/32 (Thermo Fisher). MHC-I expression was determined by flow cytometry.
# [1] = MHC-I expression, COLO 205 cells, compounds at 35 μM, 48 hours, flow cytometry (W6/32)
Compound,fold induction at 35 µM [1],further results
"O=C(Nc1cccc(-c2ccccc2)c1)OC1CCCCC1 [Example 226, N-[1,1′-biphenyl]-3-yl-carbamic acid, cyclohexyl ester]",1.74,
"NC(=O)[C@H](Cc1ccccc1)NC(=O)c1nn(CCCCCF)c2ccccc12 [Example 227, (S)-N-(1-amino-1-oxo-3-phenylpropan-2-yl)-1-(5-fluoropentyl)-1H-indazole-3-carboxamide]",1.72,
"CC(C)(NC(=O)c1nn(CCCCCF)c2ccccc12)c1ccccc1 [Example 228, 1-(5-fluoropentyl)-N-(1-methyl-1-phenylethyl)-1H-indazole-3-carboxamide]",1.72,
"COC(=O)[C@@H](NC(=O)c1cn(CC2CCCCC2)c2ccccc12)C(C)C [Example 229, methyl (1-(cyclohexylmethyl)-1H-indole-3-carbonyl)-1-valinate]",,Induction Fold [1]: 1.72 Fold
"O=C(c1nn(CCCCCF)c2ccccc12)N1CCCC1 [Example 230, (1-(5-fluoropentyl)-1H-indazol-3-yl)(pyrrolidin-1-yl)methanone]",1.72,
"CCCCCn1cc(C(=O)c2cccc3ccc(CC)cc23)c2ccccc21 [Example 231, (7-ethyl-1-naphthalenyl)(1-pentyl-1H-indol-3-yl)-methanone]",1.72,
"CCCCCn1nc(C(=O)Nc2cccc3cccnc23)c2ccccc21 [Example 232, 1-pentyl-N-(quinolin-8-yl)-1H-indazole-3-carboxamide]",1.71,
"CC(F)CCCCn1cc(C(=O)c2cccc3ccccc23)c2ccccc21 (stereo not shown) [Example 233, (1-(5-fluorohexyl)-1H-indol-3-yl)(naphthalen-1-yl)methanone]",1.71,
"CCCCCn1cc(C(=O)c2cc(OC)cc3ccccc23)c2ccccc21 [Example 234, (3-methoxynaphthalen-1-yl)(1-pentyl-1H-indol-3-yl)methanone]",1.71,
"CC(F)CCCn1cc(C(=O)C2C(C)(C)C2(C)C)c2ccccc21 (stereo not shown) [Example 235, (1-(4-fluoropentyl)-1H-indol-3-yl)(2,2,3,3-tetramethylcyclopropyl)methanone]",1.7,
"CCOC(=O)[C@@H](NC(=O)c1nn(CCCCCF)c2ccccc12)C(C)C [Example 236, ethyl (1-(5-fluoropentyl)-1H-indazole-3-carbonyl)-L-valinate]",1.7,
"CC(C)[C@H](NC(=O)c1cn(Cc2ccc(F)cc2)c2ccccc12)C(N)=O [Example 237, N-[(1S)-1-(aminocarbonyl)-2-methylpropyl]-1-[(4-fluorophenyl)methyl]-1H-indole-3-carboxamide]",1.7,
"CCCCCn1cc(C(=O)c2cccc3c(Cl)cccc23)c2ccccc21 [Example 238, (5-chloronaphthalen-1-yl)(1-pentyl-1H-indol-3-yl)methanone]",1.7,
"COC(=O)[C@@H](NC(=O)c1ccc2c(c1)c1ccccc1n2CC1CCCCC1)C(C)(C)C [Example 239, methyl (S)-2-(9-(cyclohexylmethyl)-9H-carbazole-3-carboxamido)-3,3-dimethylbutanoate]",1.69,
"CCCCCn1cc(C(=O)c2cccc3cc(C)ccc23)c2ccccc21 [Example 240, (6-methylnaphthalen-1-yl)(1-pentyl-1H-indol-3-yl)methanone]",1.69,
CCCCCCCC/C=C\CCCCCCCC(=O)N[C@H](C)CO [Example 242],,Induction Fold [1]: 1.67 Fold
"CCCCCn1nc(C(=O)OC23CC4CC(CC(C4)C2)C3)c2ccccc21 [Example 243, (3s,5s,7s)-adamantan-1-yl 1-pentyl-1H-indazole-3-carboxylate]",,Induction Fold [1]: 1.67 Fold

Compound,fold induction at 35 µM [1],further results
"CCCCCn1c(C)c(C(=O)c2ccc(CC)c3ccccc23)c2ccccc21 [Example 244, (4-ethyl-1-naphthalenyl)(2-methyl-1-pentyl-1H-indol-3-yl)-methanone]",1.66,
"CCCCCn1cc(C(=O)C23CC4CC(CC(C4)C2)C3)c2ccccc21 [Example 245, (1s,3s)-adamantan-1-yl(1-pentyl-1H-indol-3-yl)methanone]",,Induction Fold [1]: 1.66 Fold
"CCCCCn1cc(C(=O)N[C@@H](Cc2ccccc2)C(N)=O)c2ccccc21 [Example 246, (S)-N-(1-amino-1-oxo-3-phenylpropan-2-yl)-1-pentyl-1H-indole-3-carboxamide]",1.65,
"CC(C)(C)C(NC(=O)c1nn(Cc2ccc(F)cc2)c2ccccc12)C(N)=O (stereo not shown) [Example 247, N-[1-(aminocarbonyl)-2,2-dimethylpropyl]-1-[(4-fluorophenyl)methyl]-1H-indazole-3-carboxamide]",1.64,
"O=C(Oc1cccc2ccccc12)c1cn(Cc2ccc(F)cc2)c2ccccc12 [Example 248, 1-[(4-fluorophenyl)methyl]-1H-indole-3-carboxylic acid, 1-naphthalenyl ester]",1.63,
"CCCCCn1cc(C(=O)Oc2cccc3ccccc23)c2ccccc21 [Example 249, naphthalen-1-yl 1-pentyl-1H-indole-3-carboxylate]",1.63,
"CCN(CC)CCN1C(=O)CN=C(c2ccccc2F)c2cc(Cl)ccc21 [Example 250, 7-chloro-1-[2-(diethylamino)ethyl]-5-(2-fluorophenyl)-1,3-dihydro-2H-1,4-benzodiazepin-2-one]",1.63,
"CC(C)CCn1cc(C(=O)c2ccc3ccccc3c2)c2ccccc21 [Example 251, (1-isopentyl-1H-indol-3-yl)(naphthalen-2-yl)methanone]",1.62,
"CCCCCn1cc(Cc2cccc3ccccc23)c2ccccc21 [Example 252, 3-(1-naphthalenylmethyl)-1-pentyl-1H-indole]",,Induction Fold: 1.61 Fold
"COc1ccc(C(=O)c2cn(CC3CCCCC3)c3ccccc23)c2ccccc12 [Example 253, [1-(cyclohexylmethyl)-1H-indol-3-yl](4-methoxy-1-naphthalenyl)-methanone]",1.61,
"O=C(Oc1ccc2ccncc2c1)c1cn(CC2CCCCC2)c2ccccc12 [Example 254, isoquinolin-7-yl 1-(cyclohexylmethyl)-1H-indole-3-carboxylate]",1.6,
"CCCCCn1cc(C(=O)c2cccc3c(CC)cccc23)c2ccccc21 [Example 255, (5-ethyl-1-naphthalenyl)(1-pentyl-1H-indol-3-yl)-methanone]",1.6,
"CCCCCn1cc(C(=O)Oc2ccc3ncccc3c2)c2ccccc21 [Example 256, quinolin-6-yl 1-pentyl-1H-indole-3-carboxylate]",1.59,
"O=C(Oc1cccc2ccccc12)c1cn(CCCCCF)c2ccccc12 [Example 257, naphthalen-1-yl 1-(5-fluoropentyl)-1H-indole-3-carboxylate]",1.59,
"CCCCCn1nc(C(=O)Oc2cccc3cccnc23)c2ccccc21 [Example 258, 1-pentyl-1H-indazole-3-carboxylic acid, 8-quinolinyl ester]",1.59,
"CCCCCn1cc(C(=O)c2ccc3ccccc3c2)c2ccccc21 [Example 259, 2-naphthalenyl(1-pentyl-1H-indol-3-yl)-methanone]",1.58,
"CC1(C)C(C(=O)c2cn(CC3CCOCC3)c3ccccc23)C1(C)C [Example 260, [1-[(tetrahydro-2H-pyran-4-yl)methyl]-1H-indol-3-yl](2,2,3,3-tetramethylcyclopropyl)-methanone]",1.57,
